Source: publication PMC10111420, “Optimization of Host Cell-Compatible, Antimicrobial Peptides Effective against Biofilms and Clinical Isolates of Drug-Resistant Bacteria” (ACS Infectious Diseases, 2023)
Values after ≈ are worked out from the molar mass of the structure shown. Where a SMILES comes first, the peptide text is derived from it. [ ]: non-standard residue; d: D form.

Legend:
luminescent MRSA = assay: Murine wound infection model, MRSA; format: in vivo, CD1 mice; conditions: 75 μg in 20 μL water with 0.025% acetic acid, topical, every 8 h for the first 5 days; luminescence (IVIS), Days 1–3; four animals per group
Procedure: (§1) Wound luminescence values were recorded once per day for each animal during the experiment using an IVIS whole animal imaging system. Total luminescence values, integrated over the entire wound area, were averaged for the four animals in each group. Treated versus control values were compared for each day using a two-sample t-test. Multiple comparisons were corrected using the method of Bonferroni.

[1] = test system: 14 clinical isolates of resistant bacterial strains; assay: Broth dilution, summary over the 14 clinical isolates of the first set; format: cell-based; conditions: 14 clinical isolates of the first set
Procedure: In Figure 4B, we plot the fraction of isolates sterilized as functions of antibiotic concentration.
(§2) Subcultures, prepared by inoculating 25 mL of fresh tryptic soy broth (TSB) with 200 μL of an overnight culture, were grown to log phase (OD600 = 0.3–0.6), after which cell counts were determined by measuring the OD600 (1.0 = 5 × 10^8 CFU/mL for E. coli, 4 × 10^8 CFU/mL for K. pneumoniae, 4 × 10^8 CFU/mL for P. aeruginosa, 1.5 × 10^8 CFU/mL for S. aureus). Bacterial cells were diluted to appropriate concentrations in TSB. We used the following clinical bacterial isolates of Klebsiella pneumoniae in this study: Strains KP6, KP46, NDM-1, KP396, and KP398 have been previously described.[43] ST58 strains C2, C3, and I2 are also described.[41] […] MRSA, […] S. aureus strain, is SAP400, a USA400 strain of community-acquired MRSA. […] The second independent set of K. pneumoniae isolates are previously described.[20],[21]
(§3) The antibiotics were serially diluted by a factor of 2:3 horizontally across 96-well plates from Corning, 25 μL per well. One column was reserved for controls. For the assays performed in the presence of RBC, type O+ human RBCs at 0 or 2.5 × 10^9 cells/mL were added in 50 μL aliquots to all wells. Following a 30-min incubation, 50 μL of TSB, inoculated with 5 × 10^5 CFU/mL, was added to all wells, and plates were incubated overnight at 37 °C. Following overnight incubation at 37 °C, the OD600 was measured (values of less than 0.1 were considered sterilized). To assess bacterial growth in the assays with RBC, the OD600 was measured after a second-day inoculation with 10 μL of solution from the original plate added to 100 μL of sterile TSB followed by overnight incubation.

[2] = test system: luminescent P. aeruginosa (PAO1); assay: Murine wound infection model, P. aeruginosa; format: in vivo, CD1 mice; conditions: 75 μg in 20 μL water with 0.025% acetic acid, topical, every 8 h for the first 5 days; luminescence (IVIS), Days 1–3; four animals per group
Procedure: as §1

MRSA wound biofilms = assay: SEM of Tegaderm wound dressing, MRSA; format: in vivo, CD1 mice; conditions: dressing removed on Day 3, treated three times a day
From the text: The Tegaderm dressing used in the murine wound model is an excellent substrate for bacterial adhesion and biofilm formation.[5],[15] […] We imaged three to four randomly selected areas of each Tegaderm sample at two magnifications each. Each image is scored for the presence/absence of bacterial cells, either rod-shaped P. aeruginosa, ∼1 μm in diameter, or spherical MRSA cocci, ∼0.9 μm in diameter. Images are also scored for biofilm-like structures defined by having multiple bacteria embedded in an obvious three-dimensional matrix. These distinctions are shown by representative images of the fixed Tegaderm dressings in Figure 9A,B. In vehicle control samples, we observed that P. aeruginosa frequently forms an open, three-dimensional matrix in which many cells are entangled in μm-long fibers. We observed that MRSA also forms a matrix in which cells are close-packed in strands that comprise a large-scale mesh. Every SEM image (68/68) from vehicle control samples of the two bacteria contained obvious visible bacteria, and most of these images contained ≥50 individual cells. In samples from peptide-treated animals, 57 of 68 (84%) of images had no visible bacteria. […] We performed a statistical analysis of observed bacteria and biofilms using the binomial equation. P-values for all comparisons of treated vs vehicle were less than 0.001. […]

[3] = Post-surgery mouse monitoring (weight, wound condition); conditions: monitored every day for 14 days, four mice per group, P. aeruginosa and MRSA infected mice, versus vehicle control
Procedure: In this model, a deep surgical punch wound, created on the dorsal surface of healthy adult CD1 mice is stabilized with a silicone ring to prevent healing by contraction, and then, covered with a Tegaderm dressing. The wound bed, with a volume of ∼20 μL, is immediately infected with 1 × 10^5 cfu of luciferase-producing P. aeruginosa or MRSA.
Female CD1 mice at 8–12 weeks of age were anesthetized via intraperitoneal injection of ketamine and xylazine at doses of 90 and 10 mg/kg, respectively. Their dorsal surface was depilated using an electric razor and scrubbed with a chlorhexidine solution. A full-thickness biopsy wound was generated using a 5 mm biopsy punch (Integra). To function as a splint for the wound, a 0.5 mm thick silicon (Invitrogen) ring with an outer diameter of 10 mm and a hole with a 5 mm diameter was placed over the wound and held to the skin with a surgical adhesive. The entire silicon ring was then covered with Tegaderm (3 M), and further adhered using 4-0 braided silk interrupted sutures (Ethicon). Mice were given 0.05 mg/kg buprenorphine immediately following surgery as well as daily for the next 2 days to alleviate pain from the procedure. […] Weight, activity, posture, coat condition, and wound condition were monitored each day throughout the duration of the experiment to ensure the well-being of each mouse. […]

[4] = test system: K. pneumoniae clinical isolates; assay: microbe, parasite or virus in culture; conditions: clinical isolates
Procedure: as §2
The antibiotics were serially diluted by a factor of 2:3 horizontally across 96-well plates from Corning, 25 μL per well. One column was reserved for controls. For the assays performed in the presence of RBC, type O+ human RBCs at 0 or 2.5 × 10^9 cells/mL were added in 50 μL aliquots to all wells. […] To assess bacterial growth in the assays with RBC, the OD600 was measured after a second-day inoculation with 10 μL of solution from the original plate added to 100 μL of sterile TSB followed by overnight incubation.
(§4) Experiments were repeated four to eight times independently, with pairs of replicate measurements on each 96-well plate. After overnight growth, optical densities were measured at 660 nm and the sterilized wells were identified by having O.D. < 0.08. Nonsterilized wells were nearly opaque with OD > 0.6. For each measurement, we recorded the largest dilution that sterilized the bacteria. Statistics are done on dilution numbers, rather than calculated concentrations, because only the former have normal distributions.

[5] = test system: MRSA SAP400, a USA400 strain; assay: microbe, parasite or virus in culture; conditions: USA400
Procedure: as §2, §3, §4

[6] = test system: Pseudomonas aeruginosa clinical isolates; assay: microbe, parasite or virus in culture; conditions: clinical isolates
Procedure: as §2, §3, §4

[7] = test system: P. aeruginosa PAO1 (EYFP) pellicle biofilms; assay: Pellicle biofilm assay, viable cell enumeration; format: cell-based, Pseudomonas aeruginosa
Procedure: Here, we directly compare the antibiofilm activity of D-CONGA and D-CONGA-Q7 using a mature pellicle biofilm of P. aeruginosa.[22] […] To determine the susceptibility of pellicle biofilms to D-CONGA and D-CONGA-Q7, we cultured 2-day-old biofilms as described in the Methods section. The coverslip-adhered biofilms were exposed to challenge solution for 24 h prior to staining with SYTOX red and imaging with CLSM for EYFP, which indicates live cells, and for SYTOX Red which stains dead cells and extracellular DNA. […] The % cell survival was quantitated in two ways: (i) COMSTAT was used to compare biofilm biomass in CLSM images by estimating the biofilm biovolume, which is calculated as the overall volume/substratum area (μm^3/μm^2).[24],[25] […] (ii) The biofilms were dispersed mechanically for subsequent enumeration of viable cells such that % survival is expressed as the ratio (CFUuntreated biofilm/CFUtreated biofilm).
The susceptibility of biofilm-embedded P. aeruginosa cells to the antimicrobial peptides was studied as reported previously[23] using a P. aeruginosa PAO1 strain expressing enhanced yellow fluorescent protein (EYFP).[22] The EYFP-expressing P. aeruginosa strain was routinely grown in Pseudomonas Isolation (PI) media (20 g/L peptone, 0.3 g/L, MgCl2·6H2O, 10 g/L, K2SO4, 25 mg/L irgasan, and 20 mL/L glycerol, pH 7.0). […] Iron supplementation was carried out by addition of a small volume of filter-sterilized 10 mM (NH4)2Fe(SO4)2 (pH ∼ 2.0) solution.
In brief: Starter cultures (5 mL PI media supplemented with 10 μM Fe) were grown (14 h) from a single-colony shaking (220 rpm) at 37 °C. To grow the pellicle biofilms, starter cultures were diluted to OD600 = 0.001 in 4 mL of PI media supplemented with 20 μM Fe, placed in 35 × 10 mm Petri dishes, and incubated statically at 30 °C for 48 h. The pellicles were harvested using circular (1.5 cm diameter) glass coverslips by gently allowing the surface of a coverslip to contact the biofilm at the air–liquid interface. […]

CC(C)C[C@@H](NC(=O)[C@@H](CCC(N)=O)NC(=O)[C@@H](CCCNC(=N)N)NC(=O)[C@@H](CCCNC(=N)N)NC(=O)[C@@H](C)NC(=O)[C@@H](Cc1c[nH]c2ccccc12)NC(=O)[C@@H](CCCNC(=N)N)NC(=O)[C@H](N)CCCNC(=N)N)C(=O)N[C@H](C)C(=O)N[C@H](Cc1ccccc1)C(=O)N[C@H](C)C(=O)N[C@H](Cc1ccccc1)C(=O)N[C@H](CCCNC(=N)N)C(=O)N[C@H](CCCNC(=N)N)C(N)=O [D-CONGA-Q7] (H-[dR][dR][dW][dA][dR][dR][dQ][dL][dA][dF][dA][dF][dR][dR]-NH2; N-terminus assumed)
Maximum reduction of MRSA burden (luminescent MRSA): ≥ 4 logs | Fraction of clinical isolates sterilized at 2 μM ([1]; 2 μM): half | Fraction of clinical isolates sterilized at 5 μM ([1]; 5 μM): 12/14 | Reduction of P. aeruginosa burden [2]: ~2 logs | MRSA: Bacteria Present (SEM images of Tegaderm) (MRSA wound biofilms; images with bacteria / all random images): 3/35 | MRSA: Biofilm present (SEM images of Tegaderm) (MRSA wound biofilms; images with biofilm / all random images): 0/35 | Weight loss of mice [3]: did not demonstrate any differential weight loss | Wound condition score [3]: no significant difference | MIC, KP 6 [4]: 3.2 µM (≈ 6.05 µg/mL) | MIC, KP 46 [4]: 2.2 µM (≈ 4.16 µg/mL) | MIC, KP 398 [4]: 3.8 µM (≈ 7.18 µg/mL) | MIC, KP (CRE) [4]: 2.0 µM (≈ 3.78 µg/mL) | MIC, KP ATCC 33495 [4]: 2.4 µM (≈ 4.53 µg/mL) | MIC, KP ST258 C2 [4]: 8.9 µM (≈ 16.8 µg/mL) | MIC, KP ST258 C3 [4]: 14 µM (≈ 26.4 µg/mL) | MIC, KP ST258 I2 [4]: 1.4 µM (≈ 2.64 µg/mL) | MIC, KP ST396 [4]: 1.9 µM (≈ 3.59 µg/mL) | MIC, MRSA USA400 [5]: 1.5 µM (≈ 2.83 µg/mL) | MIC, PA(mucoid) [6]: 4.2 µM (≈ 7.93 µg/mL) | MIC, PA(non-mucoid) [6]: 1.1 µM (≈ 2.08 µg/mL) | Reduction of biofilm CFU ([7]; 2 μM, 48 h pellicle biofilm, 24 h challenge, dispersing and counting viable cells): 70% | Reduction of viable biofilm bacteria ([7]; 8 μM peptide, 2-day-old pellicle biofilm, 24 h treatment in AB challenge media, 30 °C): ≥ 90%
